Format in all cases: cell-based
Data set [1] can be described thus: Cytotoxicity by MTT assay.
The test system of data set [2] is NF-κB. The data set is described as follows: NF-κB transcriptional activity dual-luciferase reporter assay, TNF-α stimulated. As to conditions: Homo sapiens, HEK-293T, HEK293T cells transfected with NF-κB reporter plasmid, stimulated by TNF-α. The procedure:
4.5. NF-κB transcriptional activity assay
HEK293T cells were seeded into 96 well plate at a density of 1×10^5 cells per well. After incubated for 24 hours, cells were transfected with NF-κB reporter plasmid at 100 ng/well using lip2000.Six hours later, the medium was replaced by fresh medium containing tested compounds with different concentrations. Then incubated for another hour, TNF-α was added for a final concentration at 10 ng/mL.12 hours later, the cell lysate was collected and the RLU was measured by microplate reader. […]
(Reporter assays use an easily measured gene product as a stand-in for the process of interest.)

Data set [3] relates to LPS-stimulated RAW264.7 cells. The data set is described as follows: NO release inhibition in LPS-stimulated RAW264.7 cells (Griess reagent). The conditions noted are these: for IC50: Mus musculus, LPS-stimulated RAW264.7 cells, Griess Reagent; for anti-inflammatory activity (in words): SAR summary covering NO release and NF-κB reporter inhibition. The procedure: After incubated for 24 hours, cells were treated with tested compounds for different
concentrations(3.125,6.25,12.5,25 and 50μM) for 1 h, and then treated with 1 μg/mL LPS
for further 24 h. The supernatants were collected and NO level was measured using
Griess reagent (Beyotime, China). […]
A general note: The Griess reaction detects nitrite, a stable product of nitric oxide.

This note sets out measurements from PMC10281321, “Discovery of an effective anti-inflammatory agent for inhibiting the activation of NF-κB” (Journal of Enzyme Inhibition and Medicinal Chemistry, 2023).

Structures are written as SMILES.

As for `Cc1ccc(S(=O)(=O)/C=C/C#N)cc1` [Bay11-7082, reference compound], the IC50 in data set [1] came to 22.7 ± 3.4 µM; in data set [2], 0.0915 ± 0.0103 µM; in data set [3], 2.1 ± 0.7 µM.
Consider `CCc1ccc(-c2cnc(N)c(C(=O)Nc3ccccc3)c2)cc1` [Compound 6], for which the 50% inhibitory concentration (IC50) in data set [1] was above 25 µM; in data set [2], 1.62 ± 0.0132 µM; in data set [3] it was 19.7 ± 2.6 µM.
Take `CCc1ccc(-c2cnc(N)c(C(=O)Nc3ccc(C)cc3)c2)cc1` [Compound 7]: the concentration for half-maximal inhibition (IC50) in data set [1] is above 25 µM; in data set [2], above 2 µM; in data set [3], 26.7 ± 3.2 µM.
In the case of `CCc1ccc(-c2cnc(N)c(C(=O)Nc3cccc(C)c3)c2)cc1` [Compound 8], the results for the IC50 in data set [1], in data set [2] and in data set [3] were above 25 µM, 1.329 ± 0.0115 µM and 15.2 ± 2.8 µM, respectively.
For the molecule `CCc1ccc(-c2cnc(N)c(C(=O)Nc3ccccc3C)c2)cc1` [Compound 9], the results for the IC50 in data set [1], in data set [2] and in data set [3] were above 25 µM, above 2 µM and 30.2 ± 4 µM, respectively.
For `CCc1ccc(-c2cnc(N)c(C(=O)Nc3ccc(N)cc3)c2)cc1` [Compound 10], in that order: 7.3 ± 1.2 µM, 0.42 ± 0.0104 µM and 2.3 ± 0.9 µM.
For `CCc1ccc(-c2cnc(N)c(C(=O)Nc3cccc(N)c3)c2)cc1` [Compound 11], the IC50 in data set [1] was above 25 µM; in data set [2], 0.0958 ± 0.0062 µM; in data set [3], 1.7 ± 0.9 µM.
For `CCc1ccc(-c2cnc(N)c(C(=O)Nc3ccccc3N)c2)cc1` [Compound 12], in that order: 4.7 ± 1 µM, 0.571 ± 0.0093 µM and 0.9 ± 0.5 µM.
Take `CCc1ccc(-c2cnc(N)c(C(=O)Nc3ccc(NC(C)=O)cc3)c2)cc1` [Compound 13]: the figures for the IC50 in data set [1], in data set [2] and in data set [3] were above 25 µM, 0.7139 ± 0.0042 µM and 10.2 ± 5.4 µM, respectively. Further, in data set [1], the “cytotoxicity (in words)” value was “cytotoxicity is reduced”.
Regarding `CCc1ccc(-c2cnc(N)c(C(=O)Nc3cccc(NC(C)=O)c3)c2)cc1` [Compound 14], the IC50 in data set [1] is above 25 µM; in data set [2], 0.167 ± 0.0084 µM; in data set [3] it was 3.2 ± 1.1 µM. The “anti-inflammatory activity (in words)” value in data set [3] was “strong anti-inflammatory activity”.
The like results for `CCc1ccc(-c2cnc(N)c(C(=O)Nc3ccccc3NC(C)=O)c2)cc1` [Compound 15] were, in that order, 3.2 ± 0.8 µM, 0.532 ± 0.0135 µM, 1.1 ± 0.4 µM and “strong anti-inflammatory activity”.
In the case of `CCc1ccc(-c2cnc(N)c(C(=O)Nc3ccc(F)cc3)c2)cc1` [Compound 16], the IC50 in data set [1] was above 25 µM; in data set [2], above 2 µM; in data set [3], above 50 µM.
Turning to `CCc1ccc(-c2cnc(N)c(C(=O)Nc3ccc(Cl)cc3)c2)cc1` [Compound 17], the values for the IC50 in data set [1], in data set [2] and in data set [3] were above 25 µM, above 2 µM and above 50 µM, respectively.
Consider `CCc1ccc(-c2cnc(N)c(C(=O)Nc3ccc(OC(F)(F)F)cc3)c2)cc1` [Compound 18], for which the 50% inhibitory concentration (IC50) is above 25 µM in data set [1], above 2 µM in data set [2] and above 50 µM in data set [3]. Moreover, the “anti-inflammatory activity (in words)” value in data set [3] is “loss of anti-inflammatory activity”.
For `CCc1ccc(NC(=O)c2cc(-c3ccc(CC)cc3)cnc2N)cc1` [Compound 19], the 50% inhibitory concentration (IC50) in data set [1] is above 25 µM; in data set [2], above 2 µM; in data set [3] it was 28.5 ± 2.1 µM.
For `CCc1ccc(-c2cnc(N)c(C(=O)Nc3ccc(OC)cc3)c2)cc1` [Compound 20], in that order: above 25 µM, above 2 µM and 22 ± 0.8 µM.
Regarding `CCc1ccc(-c2cnc(N)c(C(=O)Nc3ccc(C(C)C)cc3)c2)cc1` [Compound 21], the half-inhibitory concentration (IC50) was above 25 µM in data set [1], above 2 µM in data set [2] and above 50 µM in data set [3].
For the molecule `CCc1ccc(-c2cnc(N)c(C(=O)Nc3ccc(C(N)=O)cc3)c2)cc1` [Compound 22], the values for the IC50 in data set [1], in data set [2] and in data set [3] were above 25 µM, above 2 µM and above 50 µM, respectively. Also, the “anti-inflammatory activity (in words)” value in data set [3] is given as “loss of anti-inflammatory activity”.
As for `CCc1ccc(-c2cccc(C(=O)Nc3ccc(NC(C)=O)cc3)c2)cc1` [Compound 23], the figures for the IC50 in data set [1], in data set [2] and in data set [3] were above 25 µM, above 2 µM and 32.7 ± 3.4 µM, respectively.
For `CCc1ccc(-c2cc(C(=O)Nc3ccc(NC(C)=O)cc3)ccn2)cc1` [Compound 24], in that order: above 25 µM, 0.763 ± 0.0151 µM and 14.1 ± 1.7 µM.
In the case of `CCc1ccc(-c2cncc(C(=O)Nc3ccc(NC(C)=O)cc3)c2)cc1` [Compound 25], the IC50 was above 25 µM in data set [1], 1.33 ± 0.0163 µM in data set [2] and 25.4 ± 3.1 µM in data set [3].
Turning to `CCc1ccc(-c2ccnc(C(=O)Nc3ccc(NC(C)=O)cc3)c2)cc1` [Compound 26], the IC50 was above 25 µM in data set [1], 1.96 ± 0.0535 µM in data set [2] and 19.5 ± 3.2 µM in data set [3].
For `CCc1ccc(-c2cc(C(=O)Nc3ccc(NC(C)=O)cc3)cnc2N)cc1` [Compound 27], the IC50 in data set [1] is above 25 µM; in data set [2], 1.11 ± 0.0124 µM; in data set [3], 21.5 ± 2.6 µM.
As for `CC(=O)Nc1ccc(NC(=O)c2cc(-c3ccc(C)cc3)cnc2N)cc1` [Compound 28], the IC50 in data set [1] is above 50 µM; in data set [2] it was above 2 µM; in data set [3], 24.2 ± 4.1 µM. In addition, the “anti-inflammatory activity (in words)” value in data set [3] is reported as “anti-inflammatory activity decreased significantly”.
Turning to `CC(=O)Nc1ccc(NC(=O)c2cc(-c3cccc(C)c3)cnc2N)cc1` [Compound 29], the figures for the concentration for half-maximal inhibition (IC50) in data set [1], in data set [2] and in data set [3] were above 50 µM, above 2 µM and above 50 µM, respectively. In data set [3], the “anti-inflammatory activity (in words)” value was “anti-inflammatory activity decreased significantly”.
As to `CC(=O)Nc1ccc(NC(=O)c2cc(-c3ccc(S(C)(=O)=O)cc3)cnc2N)cc1` [Compound 30], the IC50 is above 50 µM in data set [1], 1.04 ± 0.0175 µM in data set [2] and 17.8 ± 2.7 µM in data set [3].
For `COc1ccc(-c2cnc(N)c(C(=O)Nc3ccc(NC(C)=O)cc3)c2)cc1` [Compound 31], in that order: above 50 µM, above 2 µM and above 50 µM.
For the molecule `COc1cccc(-c2cnc(N)c(C(=O)Nc3ccc(NC(C)=O)cc3)c2)c1` [Compound 32], the IC50 in data set [1] is above 50 µM; in data set [2], above 2 µM; in data set [3], above 50 µM.
Take `COc1ccccc1-c1cnc(N)c(C(=O)Nc2ccc(NC(C)=O)cc2)c1` [Compound 33]: the half-inhibitory concentration (IC50) was above 50 µM in data set [1], above 2 µM in data set [2] and above 50 µM in data set [3].
For `COc1ccc(-c2cnc(N)c(C(=O)Nc3ccc(NC(C)=O)cc3)c2)c(OC)c1OC` [Compound 34], the 50% inhibitory concentration (IC50) in data set [1] was above 50 µM; in data set [2], above 2 µM; in data set [3], above 50 µM.
Turning to `CC(=O)Nc1ccc(NC(=O)c2cc(-c3ccc(Cl)cc3)cnc2N)cc1` [Compound 35], the half-inhibitory concentration (IC50) in data set [1] is above 50 µM; in data set [2], 0.207 ± 0.013 µM; in data set [3], 4.2 ± 0.8 µM. For the same molecule, in data set [3], the “anti-inflammatory activity (in words)” value is “significantly improved the anti-inflammatory activity”.
On to `CC(=O)Nc1ccc(NC(=O)c2cc(-c3cccc(Cl)c3)cnc2N)cc1` [Compound 36], for which the half-maximal inhibitory concentration (IC50) is above 50 µM in data set [1], above 2 µM in data set [2] and above 50 µM in data set [3].
For `CC(=O)Nc1ccc(NC(=O)c2cc(-c3ccccc3Cl)cnc2N)cc1` [Compound 37], the IC50 in data set [1] was above 50 µM; in data set [2], above 2 µM; in data set [3], above 50 µM.

As a reminder, the IC50 is the concentration at which inhibition is half-maximal. The low end stands for greater potency in that assay, the high end for weaker potency in that assay.
